Experimental data reported in patent publication US7238864B2, “Acetolactate synthase gene promoter” (priority 2004, dated 2007).

How the values were obtained:
[1] = target: T1, ALS (Oryza sativa subsp. japonica, UniProt Q6K2E8); assay: in vivo ALS assay on cut rice leaves (red colour development); type: cell-based; settings: wild-type rice leaves, 0.15 μM (final concentration) BS, 30 °C under light for 1 day
T1 construct: 150 mg of leaves were sampled, finely cut, and then put into a petri dish; from tissue; host or cells: rice leaves (wild-type plants)
T1 sequence (Q6K2E8 44-644): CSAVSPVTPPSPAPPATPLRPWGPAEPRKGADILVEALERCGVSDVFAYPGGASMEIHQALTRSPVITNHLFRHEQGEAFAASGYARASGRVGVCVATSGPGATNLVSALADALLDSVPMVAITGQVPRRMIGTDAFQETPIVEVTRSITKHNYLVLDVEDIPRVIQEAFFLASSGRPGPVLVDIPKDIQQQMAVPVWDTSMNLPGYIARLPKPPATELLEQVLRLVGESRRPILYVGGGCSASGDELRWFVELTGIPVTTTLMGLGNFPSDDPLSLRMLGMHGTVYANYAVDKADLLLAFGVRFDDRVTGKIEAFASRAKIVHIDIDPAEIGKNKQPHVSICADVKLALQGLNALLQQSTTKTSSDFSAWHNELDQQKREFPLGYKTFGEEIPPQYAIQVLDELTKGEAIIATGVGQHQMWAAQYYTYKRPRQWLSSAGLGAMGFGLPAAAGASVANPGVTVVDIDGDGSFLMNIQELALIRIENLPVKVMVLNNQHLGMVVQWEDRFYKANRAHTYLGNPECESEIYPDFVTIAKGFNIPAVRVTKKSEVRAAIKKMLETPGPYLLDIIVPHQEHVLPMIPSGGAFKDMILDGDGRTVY
Procedure: (§1) A treatment solution (mixed salts for 25% MS media; 500 μM (final concentration) 1,1-cyclopropanedicarboxilic acid (CPCA); 5 μg Triton X-100; and 0.15 μM (final concentration) BS) was added to the dish, and the resultant was allowed to stand at 30 ° C. under light conditions (140001×) for 1 day. After reaction, the treated leaves were put into a 1.5 ml micro tube and then 200 μl of distilled water containing 0.025% Triton X-100 was added thereto. After the solution had been allowed to stand at 60° C. for 5 minutes, extraction was carried out with sonication (frequency of 40 kHz) for 15 minutes. 200 μl of the supernatant was transferred into another tube, 20 μl of 5% (v/v) sulfuric acid was added thereto, and then the resultant was allowed to stand at 60° C. for 30 minutes. Subsequently, 100 μl of a 0.5% (w/v) creatine and 100 μl of a 5% (w/v) 1-naphthol (prepared at the time of use) dissolved in a 2.5 N NaOH solution were added to the solution. The solution was allowed to stand at 37° C. for 30 minutes. […] It is understood that in the case of wild-type rice, the ALS gene was inhibited by addition of BS so that a red color was not developed.

[2] = target: T2, ALS (Oryza sativa subsp. japonica, UniProt Q6K2E8, S627I/W548L); assay: as above; type: cell-based; settings: leaves of rice with the ALS-promoter-driven BS-resistance (two-point mutated) ALS gene, 0.15 μM BS, 30 °C under light for 1 day
T2 construct: 150 mg of leaves were sampled, finely cut, and then put into a petri dish; from tissue; host or cells: rice leaves (wild-type plants)
Procedure: as §1

T2 sequence (Q6K2E8 44-644 W548L/S627I): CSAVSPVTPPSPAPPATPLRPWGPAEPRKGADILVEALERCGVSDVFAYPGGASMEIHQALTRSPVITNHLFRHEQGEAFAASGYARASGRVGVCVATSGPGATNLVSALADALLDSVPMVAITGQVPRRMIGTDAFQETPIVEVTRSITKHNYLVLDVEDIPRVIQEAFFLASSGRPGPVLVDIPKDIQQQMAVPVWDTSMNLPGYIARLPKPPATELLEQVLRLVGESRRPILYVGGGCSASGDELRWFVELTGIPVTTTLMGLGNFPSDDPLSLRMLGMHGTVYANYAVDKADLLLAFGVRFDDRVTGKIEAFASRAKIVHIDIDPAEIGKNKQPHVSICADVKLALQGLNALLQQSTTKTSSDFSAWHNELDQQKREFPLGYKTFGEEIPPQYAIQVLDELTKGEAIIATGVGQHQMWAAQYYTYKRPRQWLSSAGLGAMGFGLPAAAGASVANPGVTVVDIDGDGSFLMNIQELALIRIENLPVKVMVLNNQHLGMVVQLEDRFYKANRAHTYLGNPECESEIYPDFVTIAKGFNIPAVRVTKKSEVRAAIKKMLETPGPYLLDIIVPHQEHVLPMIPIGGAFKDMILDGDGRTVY

Structure (SMILES): COc1cc(OC)nc(Oc2cccc(Oc3nc(OC)cc(OC)n3)c2C(=O)[O-])n1.[Na+] [BS, Bispyribac sodium salt]
- ALS inhibition by addition of BS (red color development) [1]: inhibited
- ALS activity with BS added (red color development) [2]: development of a red color similar to that developed by a group of rice plants to which no BS had been added
